Where a name gives a salt, the structure may show the parent alone. Some results are limits rather than exact numbers.

human orexin 2 receptor, sequence (O43614 whole entry): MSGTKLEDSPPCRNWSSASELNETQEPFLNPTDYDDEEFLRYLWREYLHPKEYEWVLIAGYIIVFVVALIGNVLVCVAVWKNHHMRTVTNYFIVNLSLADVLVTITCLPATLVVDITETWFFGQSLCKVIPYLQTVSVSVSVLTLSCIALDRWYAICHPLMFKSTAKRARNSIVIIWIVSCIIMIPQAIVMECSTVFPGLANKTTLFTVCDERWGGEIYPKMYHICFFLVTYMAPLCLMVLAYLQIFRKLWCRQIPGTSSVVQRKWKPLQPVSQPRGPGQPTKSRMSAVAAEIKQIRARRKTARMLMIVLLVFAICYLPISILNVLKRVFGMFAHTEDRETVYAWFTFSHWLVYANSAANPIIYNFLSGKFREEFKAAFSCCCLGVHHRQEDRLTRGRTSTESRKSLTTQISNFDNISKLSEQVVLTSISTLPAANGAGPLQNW

In one assay the target is human orexin 2 receptor (Homo sapiens (Human), UniProt O43614). As to the kind of experiment: Human orexin 2 receptor radioligand binding ([3H]-EMPA). To be noted: averages of 2-20 runs, read-out: hOX2 Ki. Here is the method:
(§1) Data are analyzed using pc-Sandy macro and graphed on Graphpad Prism 5. For analysis, each concentration point is averaged from triplicate values and the averaged values are plotted on Graphpad Prism. The IC50 was determined by applying the following equation (GraphPad Prism 5.0, SanDiego) for one site competition where X=log (concentration) and Y=specific binding. Top denotes the total [^3H]-(1-(5-(2-fluoro-phenyl)-2-methyl-thiazol-4-yl)-1-((S)-2-(5-phenyl-(1,3,4)oxadiazol-2-ylmethyl)-pyrrolidin-1-yl)-methanone) binding, bottom denotes the nonspecific [^3H]-(1-(5-(2-fluoro-phenyl)-2-methyl-thiazol-4-yl)-1-((S)-2-(5-phenyl-(1,3,4)oxadiazol-2-ylmethyl)-pyrrolidin-1-yl)-methanone) binding. Graphpad Prism calculates Ki value from IC50 and the pre-determined Kd values for [^3H]-(1-(5-(2-fluoro-phenyl)-2-methyl-thiazol-4-yl)-1-((S)-2-(5-phenyl-(1,3,4)oxadiazol-2-ylmethyl)-pyrrolidin-1-yl)-methanone) and [3H]-EMPA. The Ki for each compound is then uploaded into 3DX. Each run comprises individual compounds in triplicate.
Human Orexin 2 Receptor Radioligand Binding Studies
HEK293 stably expressing human orexin 2 receptor (Genebank accession number NM_001526) were grown to confluency in DMEM (Hyclone, cat #SH30022), 10% FBS, 1×Pen/Strep, 1× NaPyruvate, 10 mM HEPES, 600 ug/ml G418 media on 150 cm^2 tissue culture plates, washed with 5 mM EDTA in PBS (HyClone Dulbecco's Phosphate Buffered Saline 1× with Calcium and Magnesium, Cat #SH30264.01, hereafter referred to simply as PBS) and scraped into 50 ml tubes. After centrifugation (2K×G, 5 min at 4° C.), the supernatant was aspirated and the pellets frozen and stored at −80° C. […] Each cell pellet from a 15 cm plate was resuspended in 10 mL, stored on ice, and homogenized for 45 sec just prior to addition to the reactions. Competition binding experiments in 96 well polypropylene plates were performed using [^3H]-EMPA (Moraveck Corporation, specific activity=29.6 Ci/mmol), diluted to a 5 nM concentration in PBS (2 nM final concentration). […] The final concentration of DMSO in the reactions is equal to or less than 0.1%. Total and nonspecific binding was determined in the absence and presence of 10 μM almorexant. The total volume of each reaction is 200 μL (20 μL of diluted compounds, 80 μL of [^3H]-EMPA diluted in PBS and 100 μL of the cell suspension). […] The plates were washed 3 times by aspirating 30 ml PBS through the plates. Plates were dried in 55° C. oven for 60 min, scintillation fluid was added, and the radioactivity was counted on a Topcount (Packard).
For orientation: Ki means the equilibrium dissociation constant of an inhibitor or competing ligand from its target. As to `Cc1ccc(-c2ncccn2)c(C(=O)N2CCC[C@@H](Nc3cc(C)nc(C(F)(F)F)n3)[C@@H]2C)c1` (racemic) [Example 7, (±)-trans-(5-methyl-2-(pyrimidin-2-yl)phenyl)(2-methyl-3-((6-methyl-2-(trifluoromethyl)pyrimidin-4-yl)amino)piperidin-1-yl)methanone], the Ki was determined as 243 nM.

Regarding `Cc1cc(N[C@@H]2CCCN(C(=O)c3cc(F)ccc3-c3ncccn3)[C@H]2C)nc(C(F)(F)F)n1` (racemic) [Example 9, (±)-trans-(5-fluoro-2-(pyrimidin-2-yl)phenyl)(2-methyl-3-((6-methyl-2-(trifluoromethyl)pyrimidin-4-yl)amino)piperidin-1-yl)methanone], the Ki is 2260 nM.

As to `Cc1ccc(-n2nccn2)c(C(=O)N2CCC[C@@H](Oc3ccc(C(F)(F)F)cn3)[C@@H]2C)n1` (racemic) [Example 109, (±)-trans-(2-methyl-3-((5-(trifluoromethyl)pyridin-2-yl)oxy)piperidin-1-yl)(6-methyl-3-(2H-1,2,3-triazol-2-yl)pyridin-2-yl)methanone], the Ki was 463 nM.

`Cc1ccc(C(=O)N2CCC[C@@H](Nc3cnc(Cl)cn3)[C@@H]2C)c(-n2nccn2)c1` (relative stereo) [Example 180, ((2S*,3R*)-3-((5-chloropyrazin-2-yl)amino)-2-methylpiperidin-1-yl)(4-methyl-2-(2H-1,2,3-triazol-2-yl)phenyl)methanone]: the Ki came to 1900 nM.

Take `COc1ccc(C(=O)N2CCC[C@@H](Nc3ncc(Cl)cn3)[C@@H]2C)c(-n2nccn2)c1` (relative stereo) [Example 185, ((2 S*,3R*)-3-((5-chloropyrimidin-2-yl)amino)-2-methylpiperidin-1-yl)(4-methoxy-2-(2H-1,2,3-triazol-2-yl)phenyl)methanone]: the Ki was determined as 8600 nM.

With `COc1ccc(C(=O)N2CCC[C@@H](Nc3cnc(Cl)cn3)[C@@H]2C)c(-n2nccn2)c1` (relative stereo) [Example 186, ((2S*,3R*)-3-((5-chloropyrazin-2-yl)amino)-2-methylpiperidin-1-yl)(4-methoxy-2-(2H-1,2,3-triazol-2-yl)phenyl)methanone], the Ki is 9400 nM.

For `COc1ccc(C(=O)N2CCC[C@@H](Nc3ccc(C(F)(F)F)cn3)[C@@H]2C)c(Cl)n1` (relative stereo) [Example 193, (2-chloro-6-methoxypyridin-3-yl)((2S*,3R*)-2-methyl-3-((5-(trifluoromethyl)pyridin-2-yl)amino)piperidin-1-yl)methanone], the Ki is > 10000 nM.

As to `CCOc1ccc(C)nc1C(=O)N1CCC[C@@H](Nc2ccc(C(F)(F)F)cn2)[C@@H]1C` (relative stereo) [Example 194, (3-ethoxy-6-methylpyridin-2-yl)((2S*,3R*)-2-methyl-3-((5-(trifluoromethyl)pyridin-2-yl)amino)piperidin-1-yl)methanone], the inhibitory constant (Ki) stood at 315 nM.

Regarding `Cc1ccc(C(=O)N2CCC[C@@H](Nc3nnc(C(F)(F)F)s3)[C@@H]2C)c(-n2nccn2)n1` (relative stereo) [Example 196, (6-methyl-2-(2H-1,2,3-triazol-2-yl)pyridin-3-yl)((2S*,3R*)-2-methyl-3-((5-(trifluoromethyl)-1,3,4-thiadiazol-2-yl)amino)piperidin-1-yl)methanone], the Ki was > 10000 nM.

`C[C@H]1[C@H](Nc2ncc(C(F)(F)F)cn2)CCCN1C(=O)c1cccc(F)c1-c1ncccn1` (relative stereo) [Example 200, (3-fluoro-2-(pyrimidin-2-yl)phenyl)((2S*,3R*)-2-methyl-3-((5-(trifluoromethyl)pyrimidin-2-yl)amino)piperidin-1-yl)methanone]: the Ki was 985 nM.

As for `C[C@H]1[C@H](Nc2ncc(C(F)(F)F)cn2)CCCN1C(=O)c1ccc(F)cc1-c1ncccn1` (relative stereo) [Example 202, (4-fluoro-2-(pyrimidin-2-yl)phenyl)((2S*,3R*)-2-methyl-3-((5-(trifluoromethyl)pyrimidin-2-yl)amino)piperidin-1-yl)methanone], the Ki was 1500 nM.

Consider `C[C@H]1[C@H](Nc2cnc(C(F)(F)F)cn2)CCCN1C(=O)c1cccc(F)c1-c1ncccn1` (relative stereo) [Example 207, (3-fluoro-2-(pyrimidin-2-yl)phenyl)((2S*,3R*)-2-methyl-3-((5-(trifluoromethyl)pyrazin-2-yl)amino)piperidin-1-yl)methanone], for which the inhibition constant Ki stood at 385 nM.

As for `C[C@H]1[C@H](Oc2ccc(C(F)(F)F)cn2)CCCN1C(=O)c1ncccc1-c1ncccn1` (relative stereo) [Example 210, ((2S*,3R*)-2-methyl-3-((5-(trifluoromethyl)pyridin-2-yl)oxy)piperidin-1-yl)(3-(pyrimidin-2-yl)pyridin-2-yl)methanone], the Ki came to 742 nM.

On to `Cc1ccc(C(=O)N2CCC[C@@H](Nc3nc4ccccc4o3)[C@@H]2C)c(-n2nccn2)n1` [Example 75, ((2S,3R)-3-(benzo[d]oxazol-2-ylamino)-2-methylpiperidin-1-yl)(6-methyl-2-(2H-1,2,3-triazol-2-yl)pyridin-3-yl)methanone], for which the Ki was 8950 nM.

For the compound `C[C@H]1[C@H](Nc2ccc(Cl)cn2)CCCN1C(=O)c1ccccc1-n1nccn1` [Example 100, (2-(2H-1,2,3-triazol-2-yl)phenyl)((2S,3R)-3-((5-chloropyridin-2-yl)amino)-2-methylpiperidin-1-yl)methanone], the Ki came out at 190 nM.

`Cc1ccc(-n2nccn2)c(C(=O)N2CCC[C@@H](Oc3ccc(C(F)(F)F)cn3)[C@@H]2C)n1` [Example 108, ((2S,3R)-2-methyl-3-((5-(trifluoromethyl)pyridin-2-yl)oxy)piperidin-1-yl)(6-methyl-3-(2H-1,2,3-triazol-2-yl)pyridin-2-yl)methanone]: the Ki stood at 301 nM.

`Cc1cccc(C(=O)N2CCC[C@@H](Oc3ncc(Cl)cn3)[C@@H]2C)c1-n1nccn1` [Example 163, ((2S,3R)-3-((5-chloropyrimidin-2-yl)oxy)-2-methylpiperidin-1-yl)(3-methyl-2-(2H-1,2,3-triazol-2-yl)phenyl)methanone]: the Ki worked out at 1050 nM.

The next assay addresses rat orexin 1 receptor (Rattus norvegicus, UniProt P56718). As to the kind of experiment: Rat orexin 1 receptor radioligand binding.
Conditions: not given
Here is the method:
as §1
Rat and Human Orexin 1 Receptor Radioligand Binding Studies
After centrifugation (2K×G, 5 min at 4° C.), the supernatant was aspirated and the pellets frozen and stored at −80° C. […] Each cell pellet from a 15 cm plate was resuspended in 10 mL, stored on ice, and homogenized for 45 sec prior to addition to the reactions. Competition binding experiments in 96 well polypropylene plates were performed using [^3H]-(1-(5-(2-fluoro-phenyl)-2-methyl-thiazol-4-yl)-1-((S)-2-(5-phenyl-(1,3,4)oxadiazol-2-ylmethyl)-pyrrolidin-1-yl)-methanone) (Moraveck Corporation, specific activity=35.3 Ci/mmol), diluted to a 10 nM concentration in PBS (4 nM final). […] The final concentration of DMSO in the reactions is equal to or less than 0.1%. Total and nonspecific binding was determined in the absence and presence of 10 μM almorexant. The total volume of each reaction is 200 μL (20 μL of diluted compounds, 80 μL of [^3H]-(1-(5-(2-fluoro-phenyl)-2-methyl-thiazol-4-yl)-1-((S)-2-(5-phenyl-(1,3,4)oxadiazol-2-ylmethyl)-pyrrolidin-1-yl)-methanone) diluted in PBS and 100 μL of the cell suspension). […] The plates were washed 3 times by aspirating 30 ml PBS through the plates. Plates were dried in 55° C. oven for 60 min, scintillation fluid was added, and the radioactivity was counted on a Topcount (Packard).
`Cc1ccc(-c2ncco2)c(C(=O)N2CCC[C@@H](Nc3ccc(C(F)(F)F)cn3)[C@@H]2C)n1` [Example 25, ((2S,3R)-2-methyl-3-((5-(trifluoromethyl)pyridin-2-yl)amino)piperidin-1-yl)(6-methyl-3-(oxazol-2-yl)pyridin-2-yl)methanone hydrochloride] showed an inhibition constant (Ki) of 12 nM.

The same assay, now with this note: rat orexin 1 receptor radioligand binding; averages of 2-20 runs; read-out: rOX1 Ki.
On to `Cc1ccc(C(=O)N2CCC[C@@H](Nc3ccc(C(F)(F)F)cn3)[C@@H]2C)c(-n2nccn2)c1` (racemic) [Example 13, (±)-trans-(4-methyl-2-(2H-1,2,3-triazol-2-yl)phenyl)(2-methyl-3-((5-(trifluoromethyl)pyridin-2-yl)amino)piperidin-1-yl)methanone], for which the Ki stood at 16 nM.

Regarding `COc1ccc(C(=O)N2CCC[C@@H](Nc3ncc(Cl)cn3)[C@@H]2C)c(-n2nccn2)c1` (relative stereo) [Example 185, ((2 S*,3R*)-3-((5-chloropyrimidin-2-yl)amino)-2-methylpiperidin-1-yl)(4-methoxy-2-(2H-1,2,3-triazol-2-yl)phenyl)methanone], the Ki came to 259 nM.

With `COc1ccc(C(=O)N2CCC[C@@H](Nc3cnc(Cl)cn3)[C@@H]2C)c(-n2nccn2)c1` (relative stereo) [Example 186, ((2S*,3R*)-3-((5-chloropyrazin-2-yl)amino)-2-methylpiperidin-1-yl)(4-methoxy-2-(2H-1,2,3-triazol-2-yl)phenyl)methanone], the Ki worked out at 278 nM.

As for `COc1ccc(C(=O)N2CCC[C@@H](Nc3ccc(C(F)(F)F)cn3)[C@@H]2C)c(Cl)n1` (relative stereo) [Example 193, (2-chloro-6-methoxypyridin-3-yl)((2S*,3R*)-2-methyl-3-((5-(trifluoromethyl)pyridin-2-yl)amino)piperidin-1-yl)methanone], the Ki stood at 1100 nM.

Turning to `Cc1cnc(C(=O)N2CCC[C@@H](Nc3nnc(C(F)(F)F)s3)[C@@H]2C)c(-n2nccn2)c1` (relative stereo) [Example 195, ((2S*,3R*)-2-methyl-3-((5-(trifluoromethyl)-1,3,4-thiadiazol-2-yl)amino)piperidin-1-yl)(5-methyl-3-(2H-1,2,3-triazol-2-yl)pyridin-2-yl)methanone], the inhibitory constant (Ki) was 357 nM.

Consider `Cc1ccc(C(=O)N2CCC[C@@H](Nc3nnc(C(F)(F)F)s3)[C@@H]2C)c(-n2nccn2)n1` (relative stereo) [Example 196, (6-methyl-2-(2H-1,2,3-triazol-2-yl)pyridin-3-yl)((2S*,3R*)-2-methyl-3-((5-(trifluoromethyl)-1,3,4-thiadiazol-2-yl)amino)piperidin-1-yl)methanone], for which the Ki amounted to 1800 nM.

These data come from US9611251B2, “Substituted piperidine compounds and their use as orexin receptor modulators” (Janssen Pharmaceutica NV, priority 2013, dated 2017).
